Measured values from patent US20250382344A1, “Soluble GLP1/GIP/NPY2 Receptor Triple Agonists” (Boehringer Ingelheim International GmH, priority 2024, published 2025).
Where two headings read alike, the source gives them in different places. *1 amine or outer side, *2 acyl side, *3 side chain or, on linkers, in order; H or OH if unused. Where no end group is shown, it is not given here. Side-chain parts run from the residue outwards. [ ]: non-standard residue; d: D form. The star is where a group is joined. C20 diacid = O=C(O)CCCCCCCCCCCCCCCCCCC(=O)*; C18 diacid = O=C(O)CCCCCCCCCCCCCCCCC(=O)*; γGlu = O=C(O)[C@H](CCC(=O)[*:2])N[*:1]; εLys = N[C@@H](CCCCN[*:1])C(=O)[*:2]; Aib = CC(C)(N)C(=O)O

How the values were obtained:
hGLP1R = molecular target: T1, hGLP1R (Homo sapiens, UniProt P43220); experiment: hGLP1R CreLuc assay in 0.5% and 100% plasma (HEK-293 CRE-luciferase reporter cells); assay type: cell-based; conditions: 0.5% human plasma, HEK-293 reporter cells, read-out: hGLP1R 0.5% hP
T1 construct: expressed in transfected cells; host or cells: HEK-293 CRE-luciferase reporter cells
T1 sequence (P43220 24-463): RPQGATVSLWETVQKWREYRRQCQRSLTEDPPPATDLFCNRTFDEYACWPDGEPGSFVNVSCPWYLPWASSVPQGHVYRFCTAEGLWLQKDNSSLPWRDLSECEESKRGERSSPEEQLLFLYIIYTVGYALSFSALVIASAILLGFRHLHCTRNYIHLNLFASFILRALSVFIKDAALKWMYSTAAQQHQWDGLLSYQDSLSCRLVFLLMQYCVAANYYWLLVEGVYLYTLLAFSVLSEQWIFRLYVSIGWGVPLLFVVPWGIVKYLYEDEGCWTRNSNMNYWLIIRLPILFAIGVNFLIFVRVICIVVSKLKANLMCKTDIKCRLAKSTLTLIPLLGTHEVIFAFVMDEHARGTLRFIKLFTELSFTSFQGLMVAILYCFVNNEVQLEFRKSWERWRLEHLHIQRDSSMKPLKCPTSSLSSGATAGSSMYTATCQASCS

[1] = Solubility in 0.1 M phosphate buffer at pH 7; assay type: physicochemical; conditions: 0.1 M phosphate buffer at pH 7, 10 mg/mL final peptide concentration, shaking 2 hours at room temperature, peptides as TFA-salts; measured sample pH 6.5-7.0
hGIPR = molecular target: T2, hGIPR (Homo sapiens, UniProt P48546); experiment: hGIPR CreLuc assay in 0.5% and 100% plasma (CHO CRE-luciferase reporter cells); assay type: cell-based
T2 construct: expressed in transfected cells; host or cells: CHO CRE-luciferase reporter cells
T2 sequence (P48546 22-466): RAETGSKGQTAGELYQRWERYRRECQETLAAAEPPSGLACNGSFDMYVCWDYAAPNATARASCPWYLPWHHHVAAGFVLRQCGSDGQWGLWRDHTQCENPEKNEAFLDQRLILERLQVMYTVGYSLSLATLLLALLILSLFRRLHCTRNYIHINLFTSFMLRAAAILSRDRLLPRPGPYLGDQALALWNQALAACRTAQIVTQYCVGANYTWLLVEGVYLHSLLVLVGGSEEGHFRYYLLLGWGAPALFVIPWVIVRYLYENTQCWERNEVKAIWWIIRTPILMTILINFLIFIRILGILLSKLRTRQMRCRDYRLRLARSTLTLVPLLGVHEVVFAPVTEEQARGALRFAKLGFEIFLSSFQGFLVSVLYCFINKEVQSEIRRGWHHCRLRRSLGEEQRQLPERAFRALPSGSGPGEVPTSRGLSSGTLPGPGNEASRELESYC

human GIP receptor = molecular target: T3, human GIP receptor (human, UniProt P48546 22-466); experiment: cell-based or functional assay
T3 sequence (looked up): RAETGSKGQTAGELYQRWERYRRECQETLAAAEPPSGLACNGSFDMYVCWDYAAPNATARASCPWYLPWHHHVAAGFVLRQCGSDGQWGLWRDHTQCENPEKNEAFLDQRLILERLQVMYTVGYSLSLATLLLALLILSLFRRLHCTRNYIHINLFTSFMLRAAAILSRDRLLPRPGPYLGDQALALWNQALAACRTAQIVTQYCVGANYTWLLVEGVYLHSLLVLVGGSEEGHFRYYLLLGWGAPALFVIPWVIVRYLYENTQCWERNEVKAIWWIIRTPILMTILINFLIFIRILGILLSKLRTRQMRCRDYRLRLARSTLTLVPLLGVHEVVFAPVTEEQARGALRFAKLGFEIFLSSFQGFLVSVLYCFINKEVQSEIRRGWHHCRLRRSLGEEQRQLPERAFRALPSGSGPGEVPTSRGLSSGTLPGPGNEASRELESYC

[2] = 0.5% human plasma, read-out: hGIPR 0.5% hP
[3] = 100% human plasma, read-out: hGIPR 100% hP

## CC[C@H](C)[C@H](NC(=O)[C@H](CC(C)C)NC(=O)[C@H](Cc1c[nH]cn1)NC(=O)[C@H](CCCNC(=N)N)NC(=O)[C@@H](NC(=O)[C@H](Cc1ccccc1)NC(=O)[C@H](C)NC(=O)C(C)(C)NC(=O)[C@H](CCC(N)=O)NC(=O)[C@H](C)NC(=O)[C@H](CCC(N)=O)NC(=O)[C@H](CCCCN)NC(=O)[C@H](CCC(=O)O)NC(=O)[C@H](CC(C)C)NC(=O)C(C)(C)NC(=O)[C@@H](NC(=O)[C@H](CO)NC(=O)[C@H](Cc1ccc(O)cc1)NC(=O)[C@H](CC(=O)O)NC(=O)[C@H](CO)NC(=O)[C@@H](NC(=O)[C@H](Cc1ccccc1)NC(=O)[C@@H](NC(=O)CNC(=O)[C@H](CCC(=O)O)NC(=O)C(C)(C)NC(=O)[C@@H](N)Cc1ccc(O)cc1)[C@@H](C)O)[C@@H](C)O)[C@@H](C)CC)C(C)C)C(=O)N[C@@H](CC(N)=O)C(=O)N[C@@H](CCCCNC(=O)CC[C@H](NC(=O)CC[C@H](NC(=O)CC[C@H](NC(=O)CC[C@H](NC(=O)CC[C@H](NC(=O)CCCCCCCCCCCCCCCCC(=O)O)C(=O)O)C(=O)O)C(=O)O)C(=O)O)C(=O)O)C(=O)N[C@@H](CC(C)C)C(=O)N[C@H](C(=O)N[C@@H](CCCNC(=N)N)C(=O)N[C@@H](CCC(N)=O)C(=O)N[C@@H](CCCNC(=N)N)C(=O)N[C@@H](Cc1ccc(O)cc1)C(N)=O)[C@@H](C)O [Compound 158, Y-Aib-E-G-T-F-T-S-D-Y-S-I-Aib-L-E-K-Q-A-Q-Aib-A-F-V-R-H-L-I-N-K(1,3)-L-T-R-Q-R-Y-NH2.C18DA-gGlu-gGlu-gGlu-gGlu-gGlu(1,2)]
hGLP1R
  EC50: 0.6 nM
[1]
  solubility at 2 h: 3200 µg/mL
hGIPR; [2]
  EC50: 0.5 nM
hGIPR; [3]
  EC50: 14.4 nM

## CC[C@H](C)[C@H](NC(=O)[C@H](CO)NC(=O)[C@H](Cc1ccc(O)cc1)NC(=O)[C@H](CC(=O)O)NC(=O)[C@H](CO)NC(=O)[C@@H](NC(=O)[C@H](Cc1ccccc1)NC(=O)[C@@H](NC(=O)CNC(=O)[C@H](CCC(=O)O)NC(=O)C(C)(C)NC(=O)[C@@H](N)Cc1ccc(O)cc1)[C@@H](C)O)[C@@H](C)O)C(=O)N[C@@H](CCC(=O)O)C(=O)N[C@@H](CC(C)C)C(=O)N[C@@H](CCC(=O)O)C(=O)N[C@@H](CCCCN)C(=O)N[C@@H](CCC(N)=O)C(=O)N[C@@H](C)C(=O)N[C@@H](CCC(N)=O)C(=O)NC(C)(C)C(=O)N[C@@H](C)C(=O)N[C@@H](Cc1ccccc1)C(=O)N[C@H](C(=O)N[C@@H](CCCNC(=N)N)C(=O)N[C@@H](Cc1c[nH]cn1)C(=O)N[C@@H](CC(C)C)C(=O)N[C@H](C(=O)N[C@@H](CC(N)=O)C(=O)N[C@@H](CCCCNC(=O)[C@@H](N)CCCCNC(=O)CC[C@H](NC(=O)CC[C@H](NC(=O)CC[C@H](NC(=O)CC[C@H](NC(=O)CC[C@H](NC(=O)CC[C@H](NC(=O)CCCCCCCCCCCCCCCCC(=O)O)C(=O)O)C(=O)O)C(=O)O)C(=O)O)C(=O)O)C(=O)O)C(=O)NC(C)(C)C(=O)N[C@H](C(=O)N[C@@H](CCCNC(=N)N)C(=O)N[C@@H](CCC(N)=O)C(=O)N[C@@H](CCCNC(=N)N)C(=O)N[C@@H](Cc1ccc(O)cc1)C(N)=O)[C@@H](C)O)[C@@H](C)CC)C(C)C [Compound 160, Y-Aib-E-G-T-F-T-S-D-Y-S-I-E-L-E-K-Q-A-Q-Aib-A-F-V-R-H-L-I-N-K(1,3)-Aib-T-R-Q-R-Y-NH2.C18DA-gGlu-gGlu-gGlu-gGlu-gGlu-gGlu-eLys(1,2)]
hGLP1R
  EC50: 7.1 nM
[1]
  solubility at 2 h: 5200 µg/mL
hGIPR; [2]
  EC50: 0.4 nM

## CC[C@H](C)[C@H](NC(=O)[C@H](CC(C)C)NC(=O)[C@H](Cc1c[nH]cn1)NC(=O)[C@H](CCCNC(=N)N)NC(=O)[C@@H](NC(=O)[C@H](Cc1ccccc1)NC(=O)[C@H](CCC(=O)O)NC(=O)C(C)(C)NC(=O)[C@H](CCC(N)=O)NC(=O)[C@H](C)NC(=O)[C@H](CCC(N)=O)NC(=O)[C@H](CCCCN)NC(=O)[C@H](CCC(=O)O)NC(=O)[C@H](CC(C)C)NC(=O)C(C)(C)NC(=O)[C@@H](NC(=O)[C@H](CO)NC(=O)[C@H](Cc1ccc(O)cc1)NC(=O)[C@H](CC(=O)O)NC(=O)[C@H](CO)NC(=O)[C@@H](NC(=O)[C@H](Cc1ccccc1)NC(=O)[C@@H](NC(=O)CNC(=O)[C@H](CCC(=O)O)NC(=O)C(C)(C)NC(=O)[C@@H](N)Cc1ccc(O)cc1)[C@@H](C)O)[C@@H](C)O)[C@@H](C)CC)C(C)C)C(=O)N[C@@H](CC(N)=O)C(=O)N[C@@H](CCCCNC(=O)[C@@H](N)CCCCNC(=O)CC[C@H](NC(=O)CC[C@H](NC(=O)CC[C@H](NC(=O)CC[C@H](NC(=O)CCCCCCCCCCCCCCCCC(=O)O)C(=O)O)C(=O)O)C(=O)O)C(=O)O)C(=O)NC(C)(C)C(=O)N[C@H](C(=O)N[C@@H](CCCNC(=N)N)C(=O)N[C@@H](CCC(N)=O)C(=O)N[C@@H](CCCNC(=N)N)C(=O)N[C@@H](Cc1ccc(O)cc1)C(N)=O)[C@@H](C)O [Compound 163, Y-Aib-E-G-T-F-T-S-D-Y-S-I-Aib-L-E-K-Q-A-Q-Aib-E-F-V-R-H-L-I-N-K(1,3)-Aib-T-R-Q-R-Y-NH2.C18DA-gGlu-gGlu-gGlu-gGlu-eLys(1,2)]
hGLP1R
  EC50: 0.1 nM
[1]
  solubility at 2 h: 5000 µg/mL
hGIPR; [2]
  EC50: 0.2 nM
hGIPR; [3]
  EC50: 5.9 nM

## Y[Aib]EGTFTSDYSI[Aib]LEKQAQ[Aib]AFVRHLINK([εLys-γGlu-γGlu-γGlu-γGlu-γGlu-γGlu-γGlu-C18 diacid])ITRQRY-NH2 [Compound 18]
Human GIP receptor
  EC50, CreLuc reporter, 0.5% hP: 0.2 nM

## Y[Aib]EGTFTSDYSILLEKQAQ[Aib]AFVRHLINK([γGlu-γGlu-γGlu-γGlu-γGlu-γGlu-C20 diacid])[Aib]TRQRY-NH2 [Compound 57]
Human GIP receptor
  EC50, CreLuc reporter, 0.5% hP: 0.3 nM

## Y[Aib]EGTFTSDYSI[Aib]LEKQAQ[Aib]AFVRHLINK([εLys-εLys-γGlu-γGlu-γGlu-γGlu-γGlu-γGlu-C18 diacid])[Aib]TRQRY-NH2 [Compound 11]
Human GIP receptor
  EC50, CreLuc reporter, 100% hP: 8 nM

B1: Compound 20 (peptide)
peptide: YXEGTFTSDLSIXLEKQAQXAFVRHLINKXTRQRY
modifications: Aib at 2, 13, 20, 30; Lys29 epsilon-amino acylated with C20DA-gGlu-gGlu-gGlu-gGlu-gGlu-gGlu-eLys; C-terminal amide
Human GIP receptor
  EC50, CreLuc reporter, 0.5% hP: 0.4 nM

B2: Compound 15 (peptide)
peptide: YXEGTFTSDFSIXLEKQAQXAFVRHLINKXTRQRY
modifications: Aib at 2, 13, 20, 30; Lys29 epsilon-amino acylated with C20DA-gGlu-gGlu-gGlu-gGlu-gGlu-gGlu-eLys; C-terminal amide
Human GIP receptor
  EC50, CreLuc reporter, 0.5% hP: 0.6 nM

B3: Compound 71 (peptide)
peptide: YXEGTFTSDYSIXLEEQAQXAFVRHLINKXTRQRY
modifications: Aib at 2, 13, 20, 30; Lys29 epsilon-amino acylated with C18DA-gGlu-gGlu-gGlu-gGlu-gGlu-gGlu-eLys; C-terminal amide
Human GIP receptor
  EC50, CreLuc reporter, 0.5% hP: 0.3 nM

B4: Compound 24 (peptide)
peptide: YXEGTFTSDYSIXLEKIAQXAFVRHLINKXTRQRY
modifications: Aib at 2, 13, 20, 30; Lys29 epsilon-amino acylated with C18DA-gGlu-gGlu-gGlu-gGlu-gGlu-gGlu-eLys; C-terminal amide
Human GIP receptor
  EC50, CreLuc reporter, 0.5% hP: 1 nM
  EC50, CreLuc reporter, 100% hP: 26.2 nM

B5: Compound 53 (peptide)
peptide: YXEGTFTSDYSIXLEKQAQXAFIRHLINKXTRQRY
modifications: Aib at 2, 20, 30; aMeL at 13; Lys29 epsilon-amino acylated with C20DA-gGlu-gGlu-gGlu-gGlu-gGlu-gGlu-eLys; C-terminal amide
Human GIP receptor
  EC50, CreLuc reporter, 0.5% hP: 0.1 nM
  EC50, CreLuc reporter, 100% hP: 1.7 nM

B6: Compound 80 (peptide)
peptide: YXEGTFTSDYSIXLEKQAQXAFVRHLLNKXTRQRY
modifications: Aib at 2, 13, 20, 30; Lys29 epsilon-amino acylated with C20DA-gGlu-gGlu-gGlu-gGlu-gGlu-gGlu-eLys; C-terminal amide
Human GIP receptor
  EC50, CreLuc reporter, 0.5% hP: 1.7 nM
